Consider 22 compounds from patent publication US8513295B2, “Viral and fungal inhibitors” (Georgetown University, priority 2008, dated 2013).

One experiment concerns the target T1, WNV protease (UniProt Q9Q6P4).
T1 construct: "expression and purification of WNV (EG101 strain) were similar to those described elsewhere by Mueller et al."
T1 sequence (Q9Q6P4 1506-2124): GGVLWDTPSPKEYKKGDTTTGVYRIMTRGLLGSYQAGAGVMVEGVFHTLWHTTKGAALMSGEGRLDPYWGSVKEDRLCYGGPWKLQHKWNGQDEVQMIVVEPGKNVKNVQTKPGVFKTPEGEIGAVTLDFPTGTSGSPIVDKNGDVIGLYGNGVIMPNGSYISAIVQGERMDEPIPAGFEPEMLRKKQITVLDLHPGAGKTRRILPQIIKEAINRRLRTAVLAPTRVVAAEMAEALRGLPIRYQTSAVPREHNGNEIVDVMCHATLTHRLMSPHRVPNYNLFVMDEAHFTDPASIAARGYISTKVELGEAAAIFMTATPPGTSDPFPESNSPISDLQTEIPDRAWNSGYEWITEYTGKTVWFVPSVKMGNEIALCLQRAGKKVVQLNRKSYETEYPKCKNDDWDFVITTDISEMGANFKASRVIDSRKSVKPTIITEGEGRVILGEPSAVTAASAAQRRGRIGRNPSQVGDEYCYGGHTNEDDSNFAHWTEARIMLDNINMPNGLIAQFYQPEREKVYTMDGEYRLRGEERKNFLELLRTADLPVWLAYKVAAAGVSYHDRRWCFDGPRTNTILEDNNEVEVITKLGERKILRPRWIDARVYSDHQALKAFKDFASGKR
The experiment is described as follows: in vitro WNV protease assay (Example 2). Format: biochemical, West Nile Virus (EG101 strain). The following applies: Protease Inhibition Activity, Table 1; read-out: IC50 (μM) WNVpro. As for the experimental part:
Procedures for expression and purification of WNV (EG101 strain) were similar to those described elsewhere by Mueller et al., Int. J. Biochem. Cell. Biol., 39: 606-14 (2007). Briefly, E. coli Top10 F′ cells (Invitrogen, Carlsbad, Calif.) were transformed with the protease expression plasmid. Cells were grown at 37° C. until the OD600 was ˜0.5. Cells were then induced with isopropyl-1-thio-β-D-galactopyranoside (American Bioanalytical, Natick, Mass.) (0.5 mM), and incubated for 4 h at 37° C. Cells were harvested by centrifugation (5000×g) for 15 min at 4° C., washed once with a buffer containing 50 mM Tris-HCl, pH 7.5, and 200 mM NaCl, centrifuged at 5000×g for 15 min at 4° C., and stored at −80° C. until used.
Proteases were purified by suspending bacterial pellets in 50 mM Hepes, pH 7.0, 500 mM NaCl, (buffer A) with 0.05 mg/ml lysozyme. Cells were incubated for 30 min on ice after addition of 10% stock solution of Triton X-100 (final concentration of 0.5%). Cells were disrupted by sonication for 2 min and the soluble fraction was collected after centrifugation (15,000×g) for 30 min at 4° C. The soluble fraction was incubated for 1 h at 4° C. with Talon resin (BD Bioscience, San Jose, Calif.) which was pre-equilibrated in buffer A. The affinity resin was centrifuged at (400×g) for 10 min at 4° C., washed three times with buffer A, and packed into a column. Washing of the column was continued with the buffer A containing 10 mM imidazole, followed by elution of the protease with buffer A containing 150 mM imidazole. The protease was concentrated and further purified by Sephadex G-75 gel filtration chromatography. The purified protease fractions were pooled and dialyzed against a buffer containing 50 mM Tris-HCl pH 7.5 and 300 mM NaCl (4×1L). Aliquots (100 μl) were frozen at −80° C.
(§1) Compounds I-1 to I-14 and II-1 to II-4 (which were synthesized using methods of organic synthesis as discussed above) were analyzed by in vitro protease assays performed in opaque 96-well plates. The enzyme kinetics was done under steady-state conditions. The standard reaction mixtures (50 μL) containing 200 mM Tris-HCl, pH 9.5, 6 mM NaCl, 30% glycerol, 67 nM of WNV protease and 50 μM inhibitor in each assay were incubated for 15 min at room temperature. Reactions were started by the addition of the substrate Boc-Gly-Lys-Arg-AMC at 100 μM final concentration and incubated at room temperature for 15 min. The absorbance of each well containing para-nitroaniline was measured at 405 nm using a spectrophotometer (Molecular Devices, Sunnyvale, Calif.); the fluorescence of AMC released from the WNV substrate was measured using a Tecan Geneios (Durham, N.C.) spectrofluorometer at excitation and emission wavelengths of 390 nm and 420 nm, respectively. Similarly, the WNV protease activity was also determined using the fluorogenic tetrapeptide substrate containing the P4-P1 residues and the fluorogenic group, 4-methoxy-β-naphthylamide (MNA), at P1′ position (Z-Val-Lys-Lys-Arg-MNA) (SEQ ID NO:1). Fluorescence was measured using a spectrofluorometer (Molecular Devices) at excitation and emission wavelengths of 290 and 420 nm, respectively. Fluorescence values obtained with no inhibitor control were taken as 100% and those in the presence of inhibitors were plotted as the percent inhibition of the control.
(§2) Compounds I-2, I-4, I-6, I-7, I-8, I-9, I-23, I-26, I-27, I-28, I-29, I-30, I-31, I-32, III-1, III-2, VI-1, VI-2, VI-3, and VI-4 were also tested for WNV protease inhibition activity according to the procedure detailed above. Further, Compounds I-28, V-1, VI-2, VI-3, VI-4, and IX-1 were tested for DENV protease inhibition activity. The structures of Compounds I-2, I-4, I-6, I-7, I-8, I-9, I-23, I-26, I-27, I-28, I-29, I-30, I-31, I-32, III-1, III-2, VI-1, VI-2, VI-3, VI-4, and IX-1 are provided above.

The next experiment addresses DENV protease (Dengue virus type 2, UniProt P14340). In words: DENV protease inhibition activity. Format: biochemical. As for the experimental part: as §1, §2

Sequence of DENV protease (P14340 1394-1440): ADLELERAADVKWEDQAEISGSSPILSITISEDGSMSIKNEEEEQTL
Sequence of DENV protease (P14340 1476-1653): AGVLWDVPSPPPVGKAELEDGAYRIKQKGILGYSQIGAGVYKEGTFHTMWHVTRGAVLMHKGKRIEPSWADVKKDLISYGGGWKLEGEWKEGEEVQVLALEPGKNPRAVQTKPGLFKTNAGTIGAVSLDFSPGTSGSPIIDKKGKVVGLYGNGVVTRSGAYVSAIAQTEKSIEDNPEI

A word on the IC50: it is the concentration that inhibits the measured activity by half. Regarding `O=C(Nc1cccc(Oc2ccccc2)c1)C(Cc1ccccc1)N1Cc2ccccc2C1=O` (centres unmarked) [Compound I-2], the IC50 at WNV protease turned out to be 11.1 µM.

For the compound `O=C(Nc1ccc(Oc2ccccc2)cc1)C(Cc1ccccc1)N1Cc2ccccc2C1=O` (centres unmarked) [Compound I-4], the IC50 at WNV protease came out at 19.7 µM.

Take `O=C(CNC(=O)Nc1cccc(Oc2ccccc2)c1)NCc1ccccc1` [Compound I-6]: the IC50 at WNV protease was 22.1 µM.

On to `O=C(CNC(=O)Nc1ccc(Oc2ccccc2)cc1)NCc1ccccc1` [Compound I-7], for which the IC50 at WNV protease came out at 26.1 µM.

As to `O=C(CNC(=O)Nc1cccc(Oc2ccccc2)c1)Nc1ccccc1` [Compound I-8], on WNV protease, the IC50 was 22.9 µM.

Turning to `O=C(CNC(=O)Nc1ccc(Oc2ccccc2)cc1)Nc1ccccc1` [Compound I-9], the half-maximal inhibitory concentration (IC50) at WNV protease came to 31.2 µM.

Consider `O=C(CCCCc1ccccc1)Nc1cccc(Oc2ccccc2)c1` [Compound I-23], for which the IC50 at WNV protease stood at 38.6 µM.

Regarding `O=C(CC(C(=O)Nc1cccc(Oc2ccccc2)c1)N1Cc2ccccc2C1=O)OCc1ccccc1` (centres unmarked) [Compound I-26], on WNV protease, the IC50 was 13 µM.

Consider `O=C(CCC(C(=O)Nc1cccc(Oc2ccccc2)c1)N1Cc2ccccc2C1=O)OCc1ccccc1` (centres unmarked) [Compound I-27], for which the IC50 on WNV protease stood at 22.7 µM.

With `O=C(CCC(C(=O)Nc1ccc(Oc2ccccc2)cc1)N1Cc2ccccc2C1=O)OCc1ccccc1` (centres unmarked) [Compound I-28], the figures for the IC50 at WNV protease and on DENV protease were 15.5 µM and 45 µM, respectively.

For the compound `O=C(Nc1ccc(Oc2ccccc2)cc1)C(C(=O)OCc1ccccc1)n1sc2ccccc2c1=O` (centres unmarked) [Compound I-29], the IC50 on WNV protease came to 9 µM.

With `O=C(Nc1ccccc1Oc1ccccc1)C(Cc1ccccc1)n1sc2ccccc2c1=O` (centres unmarked) [Compound I-30], the IC50 at WNV protease turned out to be 6 µM.

Regarding `O=C(Nc1cccc(Oc2ccccc2)c1)C(Cc1ccccc1)n1sc2ccccc2c1=O` (centres unmarked) [Compound I-31], the IC50 on WNV protease turned out to be 2.6 µM.

For the compound `O=C(Nc1ccc(Oc2ccccc2)cc1)C(Cc1ccccc1)n1sc2ccccc2c1=O` (centres unmarked) [Compound I-32], the half-maximal inhibitory concentration (IC50) on WNV protease is 6.6 µM.

`O=C1c2ccccc2CN1C(Cc1ccccc1)c1nnc(-c2cccc(Cl)c2)o1` (centres unmarked) [Compound V-1] showed an IC50 on DENV protease of 12.2 µM.

Take `O=C(CSc1nc(-c2ccccc2)no1)Nc1nc2ccccc2[nH]1` [III-1]: the half-inhibitory concentration (IC50) on WNV protease worked out at 14.7 µM.

On to `O=C(CSc1nc2ccccc2s1)Nc1nc2ccccc2s1` [III-2], for which, at WNV protease, the IC50 came out at 34.1 µM.

In the case of `O=C(CSc1nc2ccccc2c(=O)[nH]1)Nc1cccc(Oc2ccccc2)c1` [IX-1], the IC50 on DENV protease turned out to be 89 µM.

Consider `COc1ccc(Cc2nnc(C(Cc3ccccc3)n3sc4ccccc4c3=O)o2)cc1` (centres unmarked) [VI-1], for which the IC50 at WNV protease is 26 µM.

With `O=c1c2ccccc2sn1C(Cc1ccccc1)c1nnc(Cc2ccccc2)o1` (centres unmarked) [VI-2], the IC50 at WNV protease came to 2.1 µM; on DENV protease it was 9.6 µM.

Regarding `O=c1c2ccccc2sn1C(Cc1ccccc1)c1nnc(-c2cccc(Cl)c2)o1` (centres unmarked) [VI-3], the figures for the IC50 at WNV protease and against DENV protease were 7.6 µM and 10.6 µM, respectively.

For `O=c1c2ccccc2sn1C(Cc1ccccc1)c1nnc(-c2cccc(F)c2)o1` (centres unmarked) [VI-4], the figures for the IC50 at WNV protease and on DENV protease were 9.8 µM and 11.4 µM, respectively.
